Source: PubChem BioAssay AID602130 (Sanford-Burnham Center for Chemical Genomics, 2011)
Calls of active or inactive are those of the source.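 How the source made its calls: active means IC50 at or below 20 µM; inactive means the rest.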

Target: Glucose-6-phosphate 1-dehydrogenase (Homo sapiens) (UniProt P11413)
Assay: blockers of human G6PD activity – biochemical, fluorescence, dose response, set 3, selectivity assay for PfG6PD antimalarial inhibitor project, SAR follow-up (AID 602130)
Conditions: human G6PD enzyme, NADPH resazurin-diaphorase fluorescence

Sequence of Glucose-6-phosphate 1-dehydrogenase (Homo sapiens) (P11413 whole entry, looked up): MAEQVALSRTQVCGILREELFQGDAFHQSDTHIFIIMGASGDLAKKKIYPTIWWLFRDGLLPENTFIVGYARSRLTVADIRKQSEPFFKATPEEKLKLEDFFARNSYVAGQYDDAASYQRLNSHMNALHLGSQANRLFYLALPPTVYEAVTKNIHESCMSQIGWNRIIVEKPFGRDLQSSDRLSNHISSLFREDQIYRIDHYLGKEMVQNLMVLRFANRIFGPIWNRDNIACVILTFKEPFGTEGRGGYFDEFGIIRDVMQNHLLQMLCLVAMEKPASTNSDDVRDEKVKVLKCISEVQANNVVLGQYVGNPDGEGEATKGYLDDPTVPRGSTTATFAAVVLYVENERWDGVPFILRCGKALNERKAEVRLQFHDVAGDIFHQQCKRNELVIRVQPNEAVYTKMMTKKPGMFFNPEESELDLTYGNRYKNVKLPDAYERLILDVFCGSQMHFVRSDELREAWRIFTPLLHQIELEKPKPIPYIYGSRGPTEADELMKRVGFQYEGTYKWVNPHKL

IC50, inactive:
O=C(NCCN1CCOCC1)c1ccc2c(c1)NC(=O)c1ccccc1S2 > 80 µM, CC(C)(C)OC(=O)N1CCCC1CNC(=O)c1ccc2c(c1)NC(=O)/C(=C/c1ccccc1F)S2 (centres undefined) > 80 µM, CCN1CCCC1CNC(=O)c1ccc2c(c1)NC(=O)/C(=C/c1cccc(F)c1)S2 (centres undefined) > 80 µM, CCCN1CCCC1CNC(=O)c1ccc2c(c1)NC(=O)/C(=C/c1ccccc1F)S2 (centres undefined) > 80 µM, CCN1CCC[C@@H]1CNC(=O)c1ccc2c(c1)NC(=O)/C(=C/c1ccccc1F)S2 > 80 µM, CCC(C)N(CCNC(=O)c1ccc2c(c1)NC(=O)c1ccccc1S2)C1CCCCC1 (centres undefined) > 80 µM, CCN1CCCC1CNC(=O)c1ccc2c(c1)NC(=O)C(Cc1ccccc1F)S2 (centres undefined) > 80 µM, CCN(CC)CCCC(C)Nc1ccnc2cc(Cl)ccc12 (centres undefined) > 80 µM, CCN1CCCC1CNC(=O)c1ccc2c(c1)NC(=O)/C(=C/c1c(F)cccc1F)S2 (centres undefined) > 80 µM, NC1CCN(C(=O)c2ccc3c(c2)NC(=O)c2ccccc2S3)C1 (centres undefined) > 80 µM, CN(C)c1ccccc1CNC(=O)c1ccc2c(c1)NC(=O)/C(=C/c1ccccc1F)S2 > 80 µM, CCN1CCC[C@H]1CNC(=O)c1ccc2c(c1)NC(=O)c1ccccc1S2 > 80 µM, NC1CCN(C(=O)c2ccc3c(c2)NC(=O)/C(=C/c2ccccc2F)S3)C1 (centres undefined) > 80 µM, CCC(C)N1CCCC1CNC(=O)c1ccc2c(c1)NC(=O)c1ccccc1S2 (centres undefined) > 80 µM, CCN(CC)CCNC(=O)c1ccc2c(c1)NC(=O)/C(=C/c1ccccc1F)S2 > 80 µM, CCN1CCC[C@@H]1CNC(=O)c1ccc2c(c1)NC(=O)c1ccccc1S2 > 80 µM, NCCNC(=O)c1ccc2c(c1)NC(=O)c1ccccc1S2 > 80 µM, O=C1Nc2cc(C(=O)NCC3CCCN3)ccc2S/C1=C\c1ccccc1F (centres undefined) > 80 µM, CCN1CCCC1CNC(=O)c1ccc2c(c1)NC(=O)/C(=C/c1ccc(F)cc1)S2 (centres undefined) > 80 µM, CCN1CCC[C@H]1CNC(=O)c1ccc2c(c1)NC(=O)/C(=C/c1ccccc1F)S2 > 80 µM, CCN1CCCC1CNC(=O)c1ccc2c(c1)NC(=O)/C(=C/c1cccc(F)c1F)S2 (centres undefined) > 80 µM, O=C(NCCN1CCCCC1)c1ccc2c(c1)NC(=O)c1ccccc1S2 > 80 µM, O=C(NCCNC1CCCCC1)c1ccc2c(c1)NC(=O)c1ccccc1S2 > 80 µM, CCN1CCCC1CNC(=O)c1ccc2c(c1)NC(=O)/C(=C/c1ccc3ccccc3c1)S2 (centres undefined) > 80 µM
